Assay results: patent US7273723B2, “Antibiotic-based gene regulation system” (priority 2001, dated 2007)

Tests used:
[1] = test system: erythromycin-dependent transactivators ET (MphR(A) fusions) / PETR promoters; assay: SEAP reporter assay, CHO-K1 transiently cotransfected with ET transactivator and PETR-SEAP plasmids; format: cell-based, Chinese hamster
Experimental: (§1) Chinese hamster ovary cells (CHO-K1, ATCC: CCL 61), and HeLa cells (ATCC: CRL-7923) as well as stable cell lines derived thereof were cultured as described before (Fussenegger et al., 1998, Nat. Biotechnol. 16,468-472) in the presence of appropriate antibiotics: G418 400 μg/ml; zeocin 100 μg/ml. Optimized CaPO4 protocols were used for high efficiency transient transfection of all cell lines (Fussenegger et al., 1998. Nat. Biotechnol. 16: 468-472). Transiently transfected cells were routinely analyzed after 48 h for CFP or SEAP expression using fluorescence microscopy and p-nitrophenolphosphate-based light absorbance timecourse, respectively, as described before (Fussenegger et al., 1998, Nat. Biotechnol. 16, 468-472; Berger et al., 1988, Gene 66, 1-10 b). For construction of stable CHO-ET1 and CHO-Triplet42 cell lines, CHO-Ki and CHO-TWIN1108 (Disclosed in PCT application no. 00/65080) were cotransfected with pWW35 and pZeoSV2 (invitrogen). CHO-ET11-SEAP was constructed by cotransfection of pWW38 and pSV2neo (Clontech) into CHO-ET11. The mixed populations were cloned using FACS-mediated single-cell-sorting (FACStar^Plus; Beckton Dickinson). For assessment of dose-response characteristics of PETR3-regulated gene expression, CHO-ET11-SEAP were cultured at cell densities of 50,000/ml for 48 h at various EM concentrations.
(§2) Other antibiotics were eluted from antibiotic test discs (Mast Diagnostica GmbH, Reinfeld, Germany, or bioMérieux, Geneva Switzerland) in cell culture medium at 37° C. for 12 h to reach a final concentration of 30 μg/ml. All macrolide antibiotics were used at a 2 μg/ml concentration unless indicated otherwise.
In order to analyze the potential of the MphR(A)/ETR system for the design of a novel mammalian gene regulation system, we adapted these regulatory elements for use in a eukaryotic context by construction of a set of two chimeric determinants: the EM-inhibited transactivators (ET, MphR(A) fused to different eukaryotic transactivation domains: ET1: MphR(A)-VP16; ET2: MphR(A)-p65; ET3: MphR(A)-E2F4) and the EM-responsive promoter (PETR3) (ETR fused to the minimal cytomegalovirus PhCMVmin; Gossen et al., (1992). Proc. Natl. Acad. Sci. USA 89, 5547-5551). […] CFP-expression could only be detected when pWW44 was cotransfected with an ET1-encoding pWW35, showing that the chimeric ET1 protein functions as a transactivator for PETR3 in mammalian cells.
To analyze the regulatory performance of promoters PETR1 and PETR4, an ET1-encoding vector (pWW35) was cotransfected with pWW36 and pWW39 into CHO-K1 cells. […] The results are shown in Table 6 together with the values of an ET1/PETR3 transfection (Table 5) for better comparison.

ET1/PETR3 = assay: CFP expression in CHO cells infected with ET1-encoding lentivirus (pMF391) and transfected with pWW44; format: cell-based; settings: 2 μg/ml erythromycin
[2] = test system: PIT / pristinamycin-responsive promoter PPIR; assay: SEAP assay in CHO-Triplet42 transfected with PPIR-SEAP (pMF172); format: cell-based; settings: CHO-Triplet42 + pMF172 (PPIR); antibiotic 2 μg/ml; 48 h
Experimental: as §1, §2
The regulation performance of the EM-based regulation system was compared directly with the widely used TET- and PIP responsive expression concepts. To this end, we have constructed a stable CHO-K1-derived cell line expressing ET1, PIT and tTA (CHO-Triplet42). […] CHO-Triplet42 was transfected with either isogenic (i) PETR3-(pWW38), (ii) a PPIR-(pristinamycin-responsive promoter, pMF172, Fussenegger et al., 2000. supra.), or (iii) a PhCMV*-1-(tetracycline-responsive promoter, pMF111, Fussenegger et al., 2000. supra) driven SEAP expression vector to assess the individual regulation performance of the three antibiotic-responsive gene regulation systems in CHO cells (Table 5).
To analyze the relative regulatory characteristics, we evaluated induction factors (IF; ratio of maximal expression level to antibiotic-repressed expression level).
These repressive effects are still in a range which is tolerable for use in potential medical applications.

Compound: CC[C@H]1OC(=O)[C@H](C)[C@@H](O[C@H]2C[C@@](C)(OC)[C@@H](O)[C@H](C)O2)[C@H](C)[C@@H](O[C@@H]2O[C@H](C)C[C@H](N(C)C)[C@H]2O)[C@](C)(O)C[C@@H](C)C(=O)[C@H](C)[C@@H](O)[C@]1(C)O [Erythromycin]
- SEAP activity [U/L] + Erythromycin [10 μg/ml] ([1]; CHO + pBP37 + pWW38 (ET5 + PETR3), 48 hr): 12.1 ± 1.5 U/L
- SEAP activity [U/L] + Erythromycin [10 μg/ml] ([1]; CHO + pBP38 + pWW38 (ET6 + PETR3), 48 hr): 5.8 ± 0.5 U/L
- SEAP activity [U/L] + Erythromycin [10 μg/ml] ([1]; CHO + pBP39 + pWW38 (ET7 + PETR3), 48 hr): 2.3 ± 0.2 U/L
- SEAP activity [U/L] + Erythromycin [10 μg/ml] ([1]; CHO + pWW35 + pWW36 (ET1 + PETR1-SEAP), 48 hrs): 5.3 ± 0.6 U/L
- SEAP activity [U/L] + Erythromycin [10 μg/ml] ([1]; CHO + pWW35 + pWW38 (ET1 + PETR3), 48 hr post transfection): 5.2 ± 0.5 U/L
- SEAP activity [U/L] + Erythromycin [10 μg/ml] ([1]; CHO + pWW35 + pWW39 (ET1 + PETR4-SEAP), 48 hrs): 29.3 ± 0.6 U/L
- SEAP activity [U/L] + Erythromycin [10 μg/ml] ([1]; CHO + pWW42 + pWW38 (ET2 + PETR3), 48 hr): 2.5 ± 0.6 U/L
- SEAP activity [U/L] + Erythromycin [10 μg/ml] ([1]; CHO + pWW64 + pWW38 (ET3 + PETR3), 48 hr): 1.0 ± 0.4 U/L
- CFP expression (fluorescence) (ET1/PETR3): complete repression
- SEAP activity [U/L] [2]: 10.1 ± 1.5 U/L
